Data from patent US8247211B2, “Glycopeptide antibiotics” (American Cyanamid Company, priority 2001, dated 2012).

Tests used:
Assay in all cases: In vitro antibacterial evaluation: minimum inhibitory concentration (MIC), broth dilution method
Format in all cases: cell-based
Staphylococcus sp. = details: broth dilution, 18 hours at 35° C.; for MIC Staphylococcus aureus-SMITH (GC 4543): strain SMITH GC 4543
Procedure, shortened: (§1)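 Values are minimum inhibitory concentrations, meaning the smallest antibiotic concentration that stops growth of the organism. They come from broth dilution in Muller-Hinton II […] per NCCLS guidance (M7-A2), using 5×10^5 CFU/mL and concentrations from 64 to 0.06 μg/mL.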

Streptococcus sp. = details: broth dilution, 18 hours at 35° C.
Procedure, shortened: as §1

Enterococcus sp. = details: broth dilution, 18 hours at 35° C.
Procedure, shortened: as §1

Escherichia coli = details: broth dilution, 18 hours at 35° C.
[1] = Streptococcus agalactiae (GC 4564)
[2] = Streptococcus pneumoniae (ATCC 6301)
[3] = Streptococcus pneumoniae (GC 1894)
[4] = Streptococcus pneumoniae (GC 4565)
[5] = Streptococcus pyogenes (GC 4563)
[6] = Enterococcus faecalis (ATCC 29212)
[7] = Enterococcus faecalis (GC 2242)
[8] = Enterococcus faecalis (GC 2691)
[9] = Enterococcus faecalis (GC 3059)
[10] = Enterococcus faecalis (GC 4552)
[11] = Enterococcus faecalis (GC 4553)
[12] = Enterococcus faecalis (GC 4554)
[13] = Enterococcus faecalis (GC 6189)

CC(c1ccccc1)C1NC(=O)CNC(=O)C(CO)NC(=O)C(C(O)C2CNC(=N)N2C2OC(CO)C(O)C(O)C2O)NC(=O)C(C(O)C2CNC(=N)N2)NC(=O)C(Cc2ccc3oc(-c4cccc([N+](=O)[O-])c4)nc3c2)NC1=O (stereo not drawn) [Example 26, Cyclo[3-[2-(3-nitrophenyl)-1,3-benzoxazol-5-yl)alanyl-3-(2-iminoimidazolidin-4-yl)seryl-3-(3-hexopyranosyl-2-iminoimidazolidin-4-yl)serylserylglycyl-β-methylphenylalanyl]]
16 µg/mL: MIC Staphylococcus aureus-SMITH (GC 4543) (Staphylococcus sp.) | MIC Streptococcus agalactiae (GC 4564) (Streptococcus sp.; [1]) | MIC Streptococcus pneumoniae (GC 1894) (Streptococcus sp.; [3]) | MIC Streptococcus agalactiae (GC 4564) (Streptococcus sp.) | MIC Streptococcus pneumoniae (GC 1894) (Streptococcus sp.) | MIC Escherichia coli (GC 4560) (Escherichia coli)
8 µg/mL: MIC Streptococcus pyogenes (GC 4563) (Streptococcus sp.; [5]) | MIC Streptococcus pyogenes (GC 4563) (Streptococcus sp.) | MIC Enterococcus faecium (GC 4557) (Enterococcus sp.; Enterococcus faecium (GC 4557)) | MIC Enterococcus faecium (GC 4557) (Enterococcus sp.)
32 µg/mL: MIC Streptococcus pneumoniae (ATCC 6301) (Streptococcus sp.; [2]) | MIC Streptococcus pneumoniae (GC 4565) (Streptococcus sp.; [4]) | MIC Streptococcus pneumoniae (ATCC 6301) (Streptococcus sp.) | MIC Streptococcus pneumoniae (GC 4565) (Streptococcus sp.) | MIC Enterococcus avium (GC 4558) (Enterococcus sp.; Enterococcus avium (GC 4558)) | MIC Enterococcus faecalis (ATCC 29212) (Enterococcus sp.; [6]) | MIC Enterococcus faecalis (GC 2691) (Enterococcus sp.; [8]) | MIC Enterococcus faecalis (GC 4553) (Enterococcus sp.; [11]) | MIC Enterococcus faecalis (GC 6189) (Enterococcus sp.; [13]) | MIC Enterococcus faecium (GC 2243) (Enterococcus sp.; Enterococcus faecium (GC 2243)) | MIC Enterococcus avium (GC 4558) (Enterococcus sp.) | MIC Enterococcus faecalis (ATCC 29212) (Enterococcus sp.) | MIC Enterococcus faecalis (GC 2691) (Enterococcus sp.) | MIC Enterococcus faecalis (GC 4553) (Enterococcus sp.) | MIC Enterococcus faecalis (GC 6189) (Enterococcus sp.) | MIC Enterococcus faecium (GC 2243) (Enterococcus sp.)
64 µg/mL: MIC Enterococcus faecalis (GC 2242) (Enterococcus sp.; [7]) | MIC Enterococcus faecalis (GC 3059) (Enterococcus sp.; [9]) | MIC Enterococcus faecalis (GC 4552) (Enterococcus sp.; [10]) | MIC Enterococcus faecalis (GC 4554) (Enterococcus sp.; [12]) | MIC Enterococcus faecium (GC 4556) (Enterococcus sp.; Enterococcus faecium (GC 4556)) | MIC Enterococcus faecalis (GC 2242) (Enterococcus sp.) | MIC Enterococcus faecalis (GC 3059) (Enterococcus sp.) | MIC Enterococcus faecalis (GC 4552) (Enterococcus sp.) | MIC Enterococcus faecalis (GC 4554) (Enterococcus sp.) | MIC Enterococcus faecium (GC 4556) (Enterococcus sp.) | MIC Escherichia coli (ATCC 25922) (Escherichia coli) | MIC Escherichia coli (GC 4559) (Escherichia coli)

CC(c1ccccc1)C1NC(=O)CNC(=O)C(CO)NC(=O)C(C(O)C2CNC(=N)N2C2OC(CO)C(O)C(O)C2O)NC(=O)C(C(O)C2CNC(=N)N2)NC(=O)C(Cc2ccc3oc(SCC(=O)c4ccccc4)nc3c2)NC1=O (stereo not drawn) [Example 48]
8 µg/mL: MIC Coagulase Negative Staphylococcus (GC 4548) (Staphylococcus sp.) | MIC Staphylococcus haemolyticus (GC 4546) (Staphylococcus sp.) | MIC Streptococcus pneumoniae (GC 1894) (Streptococcus sp.; [3]) | MIC Streptococcus pyogenes (GC 4563) (Streptococcus sp.; [5]) | MIC Streptococcus pneumoniae (GC 1894) (Streptococcus sp.) | MIC Streptococcus pyogenes (GC 4563) (Streptococcus sp.) | MIC Enterococcus avium (GC 4558) (Enterococcus sp.; Enterococcus avium (GC 4558)) | MIC Enterococcus avium (GC 4558) (Enterococcus sp.)
4 µg/mL: MIC Coagulase Negative Staphylococcus (GC 4547) (Staphylococcus sp.) | MIC Coagulase Negative Staphylococcus (GC 4549) (Staphylococcus sp.) | MIC Enterococcus faecium (GC 4557) (Enterococcus sp.; Enterococcus faecium (GC 4557)) | MIC Enterococcus faecium (GC 4557) (Enterococcus sp.) | MIC Escherichia coli (GC 4560) (Escherichia coli)
64 µg/mL: MIC Enterococcus faecalis (ATCC 29212) (Enterococcus sp.; [6]) | MIC Enterococcus faecalis (GC 2242) (Enterococcus sp.; [7]) | MIC Enterococcus faecalis (GC 2691) (Enterococcus sp.; [8]) | MIC Enterococcus faecalis (GC 3059) (Enterococcus sp.; [9]) | MIC Enterococcus faecalis (GC 4552) (Enterococcus sp.; [10]) | MIC Enterococcus faecalis (GC 4554) (Enterococcus sp.; [12]) | MIC Enterococcus faecalis (GC 6189) (Enterococcus sp.; [13]) | MIC Enterococcus faecium (GC 4556) (Enterococcus sp.; Enterococcus faecium (GC 4556)) | MIC Enterococcus faecalis (ATCC 29212) (Enterococcus sp.) | MIC Enterococcus faecalis (GC 2242) (Enterococcus sp.) | MIC Enterococcus faecalis (GC 2691) (Enterococcus sp.) | MIC Enterococcus faecalis (GC 3059) (Enterococcus sp.) | MIC Enterococcus faecalis (GC 4552) (Enterococcus sp.) | MIC Enterococcus faecalis (GC 4554) (Enterococcus sp.) | MIC Enterococcus faecalis (GC 6189) (Enterococcus sp.) | MIC Enterococcus faecium (GC 4556) (Enterococcus sp.)
16 µg/mL: MIC Coagulase Negative Staphylococcus (GC 4551) (Staphylococcus sp.) | MIC Staphylococcus aureus SMITH (GC 4543) (Staphylococcus sp.) | MIC Staphylococcus aureus-SMITH (GC 4543) (Staphylococcus sp.) | MIC Streptococcus agalactiae (GC 4564) (Streptococcus sp.; [1]) | MIC Streptococcus pneumoniae (ATCC 6301) (Streptococcus sp.; [2]) | MIC Streptococcus agalactiae (GC 4564) (Streptococcus sp.) | MIC Streptococcus pneumoniae (ATCC 6301) (Streptococcus sp.) | MIC Enterococcus faecalis (GC 4553) (Enterococcus sp.; [11]) | MIC Enterococcus faecium (GC 2243) (Enterococcus sp.; Enterococcus faecium (GC 2243)) | MIC Enterococcus faecalis (GC 4553) (Enterococcus sp.) | MIC Enterococcus faecium (GC 2243) (Enterococcus sp.)
32 µg/mL: MIC Streptococcus pneumoniae (GC 4565) (Streptococcus sp.; [4]) | MIC Streptococcus pneumoniae (GC 4565) (Streptococcus sp.) | MIC Escherichia coli (ATCC 25922) (Escherichia coli) | MIC Escherichia coli (GC 4559) (Escherichia coli)

CC(c1ccccc1)C1NC(=O)CNC(=O)C(CO)NC(=O)C(C(O)C2CNC(=N)N2C2OC(CO)C(O)C(O)C2O)NC(=O)C(C(O)C2CNC(=N)N2)NC(=O)C(Cc2ccc3oc(SCC(=O)c4ccc(Cl)cc4)nc3c2)NC1=O (stereo not drawn) [Example 49]
8 µg/mL: MIC Streptococcus pneumoniae (ATCC 6301) (Streptococcus sp.; [2]) | MIC Streptococcus pneumoniae (GC 1894) (Streptococcus sp.; [3]) | MIC Streptococcus pneumoniae (GC 4565) (Streptococcus sp.; [4]) | MIC Streptococcus pneumoniae (ATCC 6301) (Streptococcus sp.) | MIC Streptococcus pneumoniae (GC 1894) (Streptococcus sp.) | MIC Streptococcus pneumoniae (GC 4565) (Streptococcus sp.) | MIC Enterococcus faecium (GC 2243) (Enterococcus sp.; Enterococcus faecium (GC 2243)) | MIC Enterococcus faecium (GC 4556) (Enterococcus sp.; Enterococcus faecium (GC 4556)) | MIC Enterococcus faecium (GC 2243) (Enterococcus sp.) | MIC Enterococcus faecium (GC 4556) (Enterococcus sp.) | MIC Escherichia coli (GC 4559) (Escherichia coli)
32 µg/mL: MIC Enterococcus faecalis (GC 3059) (Enterococcus sp.; [9]) | MIC Enterococcus faecalis (GC 3059) (Enterococcus sp.)
4 µg/mL: MIC Coagulase Negative Staphylococcus (GC 4547) (Staphylococcus sp.) | MIC Coagulase Negative Staphylococcus (GC 4551) (Staphylococcus sp.) | MIC Streptococcus agalactiae (GC 4564) (Streptococcus sp.; [1]) | MIC Streptococcus agalactiae (GC 4564) (Streptococcus sp.) | MIC Enterococcus avium (GC 4558) (Enterococcus sp.; Enterococcus avium (GC 4558)) | MIC Enterococcus faecalis (GC 4553) (Enterococcus sp.; [11]) | MIC Enterococcus avium (GC 4558) (Enterococcus sp.) | MIC Enterococcus faecalis (GC 4553) (Enterococcus sp.) | MIC Escherichia coli (GC 4560) (Escherichia coli)
16 µg/mL: MIC Enterococcus faecalis (ATCC 29212) (Enterococcus sp.; [6]) | MIC Enterococcus faecalis (GC 2242) (Enterococcus sp.; [7]) | MIC Enterococcus faecalis (GC 2691) (Enterococcus sp.; [8]) | MIC Enterococcus faecalis (GC 4554) (Enterococcus sp.; [12]) | MIC Enterococcus faecalis (GC 6189) (Enterococcus sp.; [13]) | MIC Enterococcus faecalis (ATCC 29212) (Enterococcus sp.) | MIC Enterococcus faecalis (GC 2242) (Enterococcus sp.) | MIC Enterococcus faecalis (GC 2691) (Enterococcus sp.) | MIC Enterococcus faecalis (GC 4554) (Enterococcus sp.) | MIC Enterococcus faecalis (GC 6189) (Enterococcus sp.) | MIC Escherichia coli (ATCC 25922) (Escherichia coli)
1 µg/mL: MIC Coagulase Negative Staphylococcus (GC 4549) (Staphylococcus sp.) | MIC Staphylococcus haemolyticus (GC 4546) (Staphylococcus sp.)
2 µg/mL: MIC Coagulase Negative Staphylococcus (GC 4548) (Staphylococcus sp.) | MIC Staphylococcus aureus SMITH (GC 4543) (Staphylococcus sp.) | MIC Staphylococcus aureus-SMITH (GC 4543) (Staphylococcus sp.) | MIC Streptococcus pyogenes (GC 4563) (Streptococcus sp.; [5]) | MIC Streptococcus pyogenes (GC 4563) (Streptococcus sp.) | MIC Enterococcus faecalis (GC 4552) (Enterococcus sp.; [10]) | MIC Enterococcus faecium (GC 4557) (Enterococcus sp.; Enterococcus faecium (GC 4557)) | MIC Enterococcus faecalis (GC 4552) (Enterococcus sp.) | MIC Enterococcus faecium (GC 4557) (Enterococcus sp.)
